Measured values: US20070021451A1, “Method for preventing or treating neurologic damage after spinal cord injury” (HAMAMATSU UNIVERSITY SCHOOL OF MEDICINE, priority 2005, published 2007)

How the values were obtained:
[1] = Physiologic parameters (body weight, rectal temperature, mean arterial blood pressure) in rabbit model of spinal cord ischemia; format: in vivo, New Zealand White rabbits
Experimental: (§1) Twenty-six male New Zealand White rabbits weighting 2.2 to 3.0 kg were used in this experiment. Spinal cord ischemia was induced by occluding the abdominal aorta with […] for 20 minutes just distal to the renal arteries. Surgical preparation was conducted according to the method described in the literature, Terada H. et. al., J. Thorac. Cardiovasc. Surg. 2001; 122: 979-85. A 24-gauge venous catheter was placed in the marginal ear vein for drug administration. The rabbits were anesthetized with intravenous sodium pentobarbital (25 mg/kg) and allowed to breathe spontaneously. Lidocaine (0.5%) was administered at the site of the skin incision as local anesthesia. The left common carotid artery was cannulated with a 24-gauge catheter for monitoring the arterial pressure. Core body temperature was continuously monitored with a rectal probe and was maintained at 38.5° C. with the aid of heating lamp. The infrarenal abdominal aorta was exposed through a transperitoneal approach. After systemic heparinization (200 U/kg), spinal cord ischemia was induced by occluding the abdominal aorta with […] for 20 minutes just distal to the renal arteries and just above the aortic bifurcation. Then, the […] released, and the flank was closed. […] The rabbits were assigned randomly to 1 of the 4 groups and subjected to the treatment of (1) above in the following manner. The sham group (n=3) underwent the same operation without aortic occlusion. The control group (n=7) received saline (1 ml) intravenously 15 minutes before aortic occlusion. NS-7 (1 mg/kg) was administered intravenously as a bolus dose 15 minutes before aortic occlusion in group A (n=8) or just after releasing the […] onset of reperfusion) in group B (n=8). All the animals survived the entire observation period. Body weight, rectal temperature, and mean arterial blood pressure values at baseline, 10 minutes after ischemia, and 10 minutes after reperfusion are shown in Table 1. There were no significant differences in the weights of the animals.

[2] = test system: Rabbit Model of Spinal Cord Ischemia; test: Neurologic assessment: hind-limb motor function by modified Tarlov scale; format: in vivo, New Zealand White rabbits
Experimental: as §1, with “Hind-limb motor function was scored 24 and 48 hours after” for “All”, “operation by” for “animals survived”, “modified Tarlov scale.” for “entire observation period. Body weight, rectal temperature, and mean arterial blood pressure values at baseline, 10 minutes after ischemia, and 10 minutes after reperfusion are shown in Table 1. There were no significant differences in the weights of the animals.”

[3] = Group A (NS-7 1 mg/kg i.v. 15 min before aortic occlusion), Baseline
[4] = Group A (NS-7 1 mg/kg i.v. 15 min before aortic occlusion), Ischemia, 10 min
[5] = Group A (NS-7 1 mg/kg i.v. 15 min before aortic occlusion), Reperfusion, 10 min
[6] = Group B (NS-7 1 mg/kg i.v. at onset of reperfusion), Baseline
[7] = Group B (NS-7 1 mg/kg i.v. at onset of reperfusion), Ischemia, 10 min
[8] = Group B (NS-7 1 mg/kg i.v. at onset of reperfusion), Reperfusion, 10 min
[9] = Group A (n = 8, NS-7 1 mg/kg i.v. 15 min before aortic occlusion), 24 h after operation
[10] = Group A (n = 8, NS-7 1 mg/kg i.v. 15 min before aortic occlusion), 48 h after operation
[11] = Group B (n = 8, NS-7 1 mg/kg i.v. at onset of reperfusion), 24 h after operation
[12] = Group B (n = 8, NS-7 1 mg/kg i.v. at onset of reperfusion), 48 h after operation

Cc1cc(-c2ccc(F)cc2)cc(OCCCCCN2CCCCC2)n1.Cl [NS-7, 4-(4-Fluorophenyl)-2-methyl-6-(5-piperidinopentyloxy)pyridine hydrochloride]
MAP (mean arterial blood pressure) [1, 3]: 83 ± 5 mmHg
Rectal Temp. [1, 3]: 38.4 ± 0.7 °C
MAP (mean arterial blood pressure) [1, 4]: 85 ± 5 mmHg
Rectal Temp. [1, 4]: 38.1 ± 0.4 °C
MAP (mean arterial blood pressure) [1, 5]: 78 ± 10 mmHg
Rectal Temp. [1, 5]: 38.1 ± 0.2 °C
MAP (mean arterial blood pressure) [1, 6]: 91 ± 6 mmHg
Rectal Temp. [1, 6]: 38.5 ± 0.4 °C
MAP (mean arterial blood pressure) [1, 7]: 86 ± 7 mmHg
Rectal Temp. [1, 7]: 38.4 ± 0.5 °C
MAP (mean arterial blood pressure) [1, 8]: 81 ± 8 mmHg
Rectal Temp. [1, 8]: 38.6 ± 0.5 °C
Number of rabbits with Tarlov score 0 [2, 9]: 0
Number of rabbits with Tarlov score 1 [2, 9]: 0
Number of rabbits with Tarlov score 2 [2, 9]: 0
Number of rabbits with Tarlov score 3 [2, 9]: 2
Number of rabbits with Tarlov score 4 [2, 9]: 3
Number of rabbits with Tarlov score 5 [2, 9]: 3
Number of rabbits with Tarlov score 0 [2, 10]: 0
Number of rabbits with Tarlov score 1 [2, 10]: 0
Number of rabbits with Tarlov score 2 [2, 10]: 1
Number of rabbits with Tarlov score 3 [2, 10]: 2
Number of rabbits with Tarlov score 4 [2, 10]: 4
Number of rabbits with Tarlov score 5 [2, 10]: 1
Number of rabbits with Tarlov score 0 [2, 11]: 0
Number of rabbits with Tarlov score 1 [2, 11]: 0
Number of rabbits with Tarlov score 2 [2, 11]: 0
Number of rabbits with Tarlov score 3 [2, 11]: 2
Number of rabbits with Tarlov score 4 [2, 11]: 1
Number of rabbits with Tarlov score 5 [2, 11]: 5
Number of rabbits with Tarlov score 0 [2, 12]: 0
Number of rabbits with Tarlov score 1 [2, 12]: 0
Number of rabbits with Tarlov score 2 [2, 12]: 1
Number of rabbits with Tarlov score 3 [2, 12]: 2
Number of rabbits with Tarlov score 4 [2, 12]: 1
Number of rabbits with Tarlov score 5 [2, 12]: 4
Recovery of motor function in the hind limbs ([2]; group A and B, 24 hours and 48 hours after the operation, P<0.01 vs control): remarkably enhanced
